Consider five molecules from publication PMC11938010, “Positive Charge in an Antimalarial Compound Unlocks Broad-Spectrum Antibacterial Activity” (JACS Au, 2025).

In brackets after ≈: the same amount, converted by molar mass. Where two headings read alike, the source gives them in different places.

A short description of one data set: in vitro. As to conditions: human, HepG2 CC50, 48 h, MTT.
The subject of a further data set is E. coli K12. Description: In vitro antibacterial activity (growth inhibition, OD600), E. coli wild-type. As to conditions: Escherichia coli. The class given is cell-based.
Data set [1] deals with Streptococcus pneumoniae (DSM20566). Description: In vitro antibacterial activity (MIC), S. pneumoniae. Type of data set: cell-based. Particulars: Streptococcus pneumoniae, DSM20566, read-out: Sp MIC95.
Data set [2] relates to Pseudomonas aeruginosa PA14. Description: In vitro antibacterial activity (growth inhibition, OD600), P. aeruginosa. The class given is cell-based. Particulars: PA14, 50 μM compound, Table 1 and main text, read-out: PA14 inh. at 50 μM.
For data set [3], the system named is Mycobacterium tuberculosis (Mtb) strain H37Rv. Description: microbe, parasite or virus in culture. The class given is cell-based. As to conditions: 168 h, 7 days, footnote b: not active at maximum solubility, read-out: MtbH37Rv MIC90.
Data set [4] concerns Staphylococcus aureus ssp. Aureus. Description: In vitro antibacterial activity (MIC), S. aureus. Type of data set: cell-based. As to conditions: Staphylococcus aureus, read-out: Sa MIC95.
For a further data set, the system named is Acinetobacter baumannii. Kind of data set: In vitro antibacterial activity (growth inhibition, OD600), A. baumannii. The class given is cell-based. Particulars: for inhibition at 50 µM: 50 μM compound, read-out: Ab inh. at 50 μM; for MIC: read-out: Ab MIC95.
A further data set relates to Escherichia coli ∆tolC. Description: microbe, parasite or virus in culture. Type of data set: cell-based. Particulars: Escherichia coli.
Data set [5] concerns Plasmodium falciparum NF54. Kind of data set: P. falciparum in vitro drug sensitivity assay on asexual blood stage parasites ([3H]-hypoxanthine incorporation). As to conditions: read-out: PfNF54 IC50. The class given is cell-based.
The mark [6] stands for this setting: K12, 50 μM compound, Table 1 and main text, read-out: EcK12 inh. at 50 μM.
[7] abbreviates: Table S2, with standard deviation.
Setting [8] is: Plasmodium falciparum, NF54, Table 1 and main text.

Regarding `O=C(Nc1ccc(N2CCNCC2)c(C(F)(F)F)c1)c1cc(-c2cc(Cl)ccc2O)[nH]n1` [Compound 12A, 5-(5-Chloro-2-hydroxyphenyl)-N-(4-(piperazin-1-yl)-3-(trifluoromethyl)phenyl)-1H-pyrazole-3-carboxamide], the CC50 in “in vitro” worked out at 6 µM. In addition, the inhibition at 50 µM is 12% in the data set on E. coli K12 (setting [6]); under 10% in [2]; 29% with Acinetobacter baumannii (Table 1 and main text). Also, the MIC in data set [1] (Table 1 and main text) stood at 8 µM (≈ 3.73 µg/mL); in [1] (setting [7]), 8 ± 2 µM (≈ 3.73 µg/mL); in [4] (Table 1 and main text) it was 14 µM (≈ 6.52 µg/mL); in data set [4] (setting [7]) it was 14 ± 2 µM (≈ 6.52 µg/mL); with Escherichia coli ∆tolC (read-out: EcΔtolC MIC95) it was 18.9 µM (≈ 8.8 µg/mL); in the data set on Escherichia coli ∆tolC (read-out: Ec∆tolC MIC95 (µM)), 18.9 ± 0.5 µM (≈ 8.8 µg/mL). For the same molecule, the MIC90 in data set [3] turned out to be 16 µM (≈ 7.45 µg/mL). The IC50 (usually the concentration at which inhibition is half-maximal) was at most 0.06 µM in data set [5] (setting [8]); 0.06 µM in [5] (Table 1 and main text).
In “in vitro”, `O=C(Nc1cc(CNC2=NCCN2)cc(C(F)(F)F)c1)c1cc(-c2cc(Cl)ccc2O)[nH]n1` [Compound 9C, 5-(5-Chloro-2-hydroxyphenyl)-N-(3-(((4,5-dihydro-1H-imidazol-2-yl)amino)methyl)-5-(trifluoromethyl)phenyl)-1H-pyrazole-3-carboxamide] gave a CC50 of over 50 µM. Further, the inhibition at 50 µM with E. coli K12 (K12, 50 µM, Table S1, with standard deviation, read-out: EcK12 inh. at 50 µM (%)) is 84 ± 2%; in the data set with E. coli K12 (K12, read-out: EcK12 inh. at 50 μM, 50 μM compound, Table 1 and main text) it was under 10%; in data set [2], 18%; in the data set on Acinetobacter baumannii (Table 1 and main text), 47%. The MIC worked out at 15 µM (≈ 7.18 µg/mL) in [1] (Table 1 and main text); 15 ± 4 µM (≈ 7.18 µg/mL) in [1] (setting [7]); 9 µM (≈ 4.31 µg/mL) in data set [4] (Table 1 and main text); 9 ± 2 µM (≈ 4.31 µg/mL) in data set [4] (setting [7]); 7 µM (≈ 3.35 µg/mL) in the data set on Escherichia coli ∆tolC (read-out: EcΔtolC MIC95); 7 ± 1 µM (≈ 3.35 µg/mL) in the data set on Escherichia coli ∆tolC (read-out: Ec∆tolC MIC95 (µM)). Further, the MIC90 in [3] was 16 µM (≈ 7.66 µg/mL). Also, the 50% inhibitory concentration (IC50) in data set [5] (setting [8]) is 0.517 µM.
With `NCc1cc(NC(=O)c2cc(-c3cc(Cl)ccc3O)[nH]n2)cc(C(F)(F)F)c1` [Compound 9A, N-(3-(Aminomethyl)-5-(trifluoromethyl)phenyl)-5-(5-chloro-2-hydroxyphenyl)-1H-pyrazole-3-carboxamide], the CC50 in the data set “in vitro” came to 7 µM. Further, the inhibition at 50 µM (in the data set on E. coli K12 (setting [6]); in [2]) was under 10% in each case. Further, the MIC is 11 µM (≈ 4.52 µg/mL) in [1] (Table 1 and main text); 10.8 ± 2.5 µM (≈ 4.44 µg/mL) in [1] (setting [7]); 12.1 µM (≈ 4.97 µg/mL) in [4] (Table 1 and main text); 12.1 ± 0.6 µM (≈ 4.97 µg/mL) in data set [4] (setting [7]); 48.9 ± 0.5 µM (≈ 20.1 µg/mL) in the data set on Acinetobacter baumannii (Table S1, printed inside the inhibition column, with standard deviation, unit from Table 1 footnote); 49 µM (≈ 20.1 µg/mL) in the data set on Acinetobacter baumannii (printed inside the Ab inhibition column, Table 1 and main text). For the same molecule, the MIC in the data set on Escherichia coli ∆tolC (read-out: EcΔtolC MIC95) is 8 µM (≈ 3.29 µg/mL); with Escherichia coli ∆tolC (read-out: Ec∆tolC MIC95 (µM)), 8 ± 3 µM (≈ 3.29 µg/mL). Also, in data set [3], the MIC90 turned out to be 32 µM (≈ 13.1 µg/mL). Besides, in data set [5] (setting [8]), the IC50 came out at 0.082 µM.
As to `N=C(N)N1CCN(c2cccc(NC(=O)c3cc(-c4cc(Cl)ccc4O)[nH]n3)c2)CC1` [Compound 5G], in “in vitro”, the CC50 was over 50 µM. The inhibition at 50 µM in the data set with E. coli K12 (setting [6]) was 32%; in [2], 31%; in the data set with Acinetobacter baumannii (Table 1 and main text), under 10%. Besides, the MIC turned out to be 48 µM (≈ 21.1 µg/mL) in [1] (Table 1 and main text); 48 ± 1 µM (≈ 21.1 µg/mL) in [1] (setting [7]); 23.1 µM (≈ 10.2 µg/mL) in [4] (Table 1 and main text); 23.1 ± 0.5 µM (≈ 10.2 µg/mL) in [4] (setting [7]); 11 µM (≈ 4.84 µg/mL) in the data set on Escherichia coli ∆tolC (read-out: EcΔtolC MIC95); 11 ± 2 µM (≈ 4.84 µg/mL) in the data set on Escherichia coli ∆tolC (read-out: Ec∆tolC MIC95 (µM)). The MIC90 in data set [3] turned out to be 64 µM (≈ 28.2 µg/mL). For the same molecule, the IC50 in data set [5] (setting [8]) was found to be 0.93 µM.
On to `O=C(Nc1cc(N2CCN(C3=NCCN3)CC2)cc(C(F)(F)F)c1)c1cc(-c2cc(Cl)ccc2O)[nH]n1` [Compound 11C, 5-(5-Chloro-2-hydroxyphenyl)-N-(3-(4-(4,5-dihydro-1H-imidazol-2-yl)piperazin-1-yl)-5-(trifluoromethyl)phenyl)-1H-pyrazole-3-carboxamide], for which the CC50 in “in vitro” is over 50 µM. Moreover, the inhibition at 50 µM is 63% in the data set on E. coli K12 (setting [6]); under 10% in data set [2]; 53% with Acinetobacter baumannii (Table 1 and main text). Further, the MIC in [1] (Table 1 and main text) is 7 µM (≈ 3.74 µg/mL); in data set [1] (setting [7]) it was 7 ± 2 µM (≈ 3.74 µg/mL); in data set [4] (Table 1 and main text), 8 µM (≈ 4.27 µg/mL); in data set [4] (setting [7]), 8 ± 2 µM (≈ 4.27 µg/mL); in the data set with Escherichia coli ∆tolC (read-out: EcΔtolC MIC95), 7 µM (≈ 3.74 µg/mL); in the data set on Escherichia coli ∆tolC (read-out: Ec∆tolC MIC95 (µM)), 7 ± 2 µM (≈ 3.74 µg/mL). For the same molecule, in data set [3], the MIC90 came to 8 µM (≈ 4.27 µg/mL). The IC50 in data set [5] (setting [8]) is 0.59 µM.
